Measured values as given in ChEMBL document CHEMBL1201862, “PubChem BioAssay data set” (2004).
Calls of active or inactive are those of the source. Cut-off read from the data, not from the text of the source: actives have a measured EC50 and inactives only a lower limit.

molecular target: T1, Streptokinase A (Streptococcus pyogenes serotype M1, UniProt P10520); test: S. pyogenes streptokinase expression inhibitors, potency, dose response, plasminogen activation absorbance, OD405 (AID 1914); format: functional, Streptococcus pyogenes M1 GAS; conditions: not given;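 note: secreted streptokinase activity via plasminogen activation per viability signal from cell pellet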
T1 sequence (P10520 whole entry): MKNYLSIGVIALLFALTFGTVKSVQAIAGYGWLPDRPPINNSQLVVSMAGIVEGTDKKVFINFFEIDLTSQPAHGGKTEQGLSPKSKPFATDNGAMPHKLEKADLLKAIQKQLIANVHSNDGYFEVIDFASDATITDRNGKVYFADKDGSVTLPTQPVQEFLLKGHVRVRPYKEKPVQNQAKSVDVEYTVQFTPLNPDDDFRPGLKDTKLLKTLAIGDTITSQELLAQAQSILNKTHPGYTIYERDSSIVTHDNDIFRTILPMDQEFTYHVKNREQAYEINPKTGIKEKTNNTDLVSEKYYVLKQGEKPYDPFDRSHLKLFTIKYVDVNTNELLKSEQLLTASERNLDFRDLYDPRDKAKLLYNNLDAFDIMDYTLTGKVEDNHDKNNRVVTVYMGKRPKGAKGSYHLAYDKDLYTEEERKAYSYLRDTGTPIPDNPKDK

SMILES | EC50
Cc1ccc(C(=O)Nc2nnc(S(=O)(=O)N3CCN(c4ccc(F)cc4)CC3)s2)cc1 | > 150 µM (not active)
O=C(COc1cccc(Cl)c1)Nc1ccccc1N1CCCCC1 | 11.1 µM (active)
Cc1nc2c(C)cccn2c(=O)c1NC(=O)c1ccc2c(c1)OCO2 | > 150 µM (not active)
Cc1ccsc1C(=O)N(c1nc2ccccc2s1)c1c(C)cccc1C | 7.09 µM (inconclusive)
CC(C)(C)c1ccccc1OCCCCCn1ccnc1 | > 150 µM (not active)
FC(F)(F)c1cccc(Nc2nc(N3CCCC3)nc(N3CCCC3)n2)c1 | 17.5 µM (inconclusive)
CCOc1ccc2c(c1)c1nnc(SCC(=O)N3CCC(C)CC3)nc1n2C | > 150 µM (not active)
Cc1ccc2c(c1)C(=O)CC1(CCC(C(C)(C)C)CC1)O2 (configuration not stated) | 12.6 µM (active)
O=C(NC(=S)Nc1ccc(Cl)c(C(=O)O)c1)c1cccc(COc2ccccc2)c1 | > 150 µM (not active)
CCCCCCCCCCC(=O)NNC(=O)c1c(O)c2ccccc2n(CC)c1=O | > 150 µM (not active)
O=C(CSC(=S)N1CCCCC1)Nc1nc(-c2ccccc2)c(-c2ccccc2)o1 | > 150 µM (not active)
CCOC(=O)c1cnc(-n2nc(C)cc2C)nc1N(CC)CC | > 150 µM (not active)
COc1ccc(-c2coc3c(C)c4oc(=O)c(CCC(=O)O)c(C)c4cc23)cc1 | > 150 µM (not active)
CCCn1c(NC(=O)C23CC4CC(CC(O)(C4)C2)C3)nc2ccccc21 | > 150 µM (not active)
CC(=O)Oc1ccc(/C=N/NS(=O)(=O)c2ccccc2)cc1 | > 150 µM (not active)
Cc1cc(Br)c(OCc2ccc(C(=O)N/N=C3\CC4CC=CC34)cc2)c(Br)c1 (configuration not stated) | > 150 µM (not active)
CC(=N)/C(C#N)=C(/O)CSc1nc2cc(Cl)ccc2c(=O)n1Cc1ccco1 | > 150 µM (not active)
C/C(=N\NC(=O)c1ccc(Cl)c(Cl)c1)c1ccc(Br)s1 | > 150 µM (not active)

system: Streptococcus; test: Group A Streptococcus viability loss, dose response, counter-screen for streptokinase expression inhibitor project, luminescence, BacTiterGlo (AID 1915); format: functional, organism-based; conditions: not given;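 note: potency for reduction of bacterial viability or growth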

SMILES | EC50
Cc1ccc(C(=O)Nc2nnc(S(=O)(=O)N3CCN(c4ccc(F)cc4)CC3)s2)cc1 | 109 µM (active)
O=C(COc1cccc(Cl)c1)Nc1ccccc1N1CCCCC1 | > 150 µM (not active)
Cc1nc2c(C)cccn2c(=O)c1NC(=O)c1ccc2c(c1)OCO2 | > 150 µM (not active)
Cc1ccsc1C(=O)N(c1nc2ccccc2s1)c1c(C)cccc1C | > 150 µM (not active)
CC(C)(C)c1ccccc1OCCCCCn1ccnc1 | > 150 µM (not active)
FC(F)(F)c1cccc(Nc2nc(N3CCCC3)nc(N3CCCC3)n2)c1 | 9.85 µM (active)
CCOc1ccc2c(c1)c1nnc(SCC(=O)N3CCC(C)CC3)nc1n2C | > 150 µM (not active)
Cc1ccc2c(c1)C(=O)CC1(CCC(C(C)(C)C)CC1)O2 (configuration not stated) | 14.2 µM (active)
O=C(NC(=S)Nc1ccc(Cl)c(C(=O)O)c1)c1cccc(COc2ccccc2)c1 | > 150 µM (not active)
CCCCCCCCCCC(=O)NNC(=O)c1c(O)c2ccccc2n(CC)c1=O | 4.38 µM (active)
O=C(CSC(=S)N1CCCCC1)Nc1nc(-c2ccccc2)c(-c2ccccc2)o1 | > 150 µM (not active)
CCOC(=O)c1cnc(-n2nc(C)cc2C)nc1N(CC)CC | > 150 µM (not active)
COc1ccc(-c2coc3c(C)c4oc(=O)c(CCC(=O)O)c(C)c4cc23)cc1 | 15.4 µM (active)
CCCn1c(NC(=O)C23CC4CC(CC(O)(C4)C2)C3)nc2ccccc21 | > 150 µM (not active)
CC(=O)Oc1ccc(/C=N/NS(=O)(=O)c2ccccc2)cc1 | > 150 µM (not active)
Cc1cc(Br)c(OCc2ccc(C(=O)N/N=C3\CC4CC=CC34)cc2)c(Br)c1 (configuration not stated) | 44.5 µM (active)
CC(=N)/C(C#N)=C(/O)CSc1nc2cc(Cl)ccc2c(=O)n1Cc1ccco1 | 16.2 µM (active)
C/C(=N\NC(=O)c1ccc(Cl)c(Cl)c1)c1ccc(Br)s1 | 14.7 µM (active)

system: not listed separately; test: cytotoxicity toward NIH3T3 fibroblasts, dose response, counter-screen, cell-based, ATP luminescence, mouse fibroblasts (AID 2010); format: functional; conditions: not given;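 note: cells exposed to compound for about 90 hours before reading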

SMILES | EC50
CC(C)(C)c1ccccc1OCCCCCn1ccnc1 | > 60 µM (not active)
CC(=N)/C(C#N)=C(/O)CSc1nc2cc(Cl)ccc2c(=O)n1Cc1ccco1 | > 60 µM (inconclusive)
C/C(=N\NC(=O)c1ccc(Cl)c(Cl)c1)c1ccc(Br)s1 | 8.11 µM (active)

molecular target: T2, Protein RecA (Mycobacterium tuberculosis, UniProt P9WHJ3); test: Fluorescence Cell-Free Homogeneous Dose Retest to Identify Inhibitors of RecA-Intein Splicing Activity. [Related pubchem assays (depositor defined):AID2097, AID2223, AID489010, AID492950]; format: functional; conditions: not given
T2 sequence (P9WHJ3 whole entry): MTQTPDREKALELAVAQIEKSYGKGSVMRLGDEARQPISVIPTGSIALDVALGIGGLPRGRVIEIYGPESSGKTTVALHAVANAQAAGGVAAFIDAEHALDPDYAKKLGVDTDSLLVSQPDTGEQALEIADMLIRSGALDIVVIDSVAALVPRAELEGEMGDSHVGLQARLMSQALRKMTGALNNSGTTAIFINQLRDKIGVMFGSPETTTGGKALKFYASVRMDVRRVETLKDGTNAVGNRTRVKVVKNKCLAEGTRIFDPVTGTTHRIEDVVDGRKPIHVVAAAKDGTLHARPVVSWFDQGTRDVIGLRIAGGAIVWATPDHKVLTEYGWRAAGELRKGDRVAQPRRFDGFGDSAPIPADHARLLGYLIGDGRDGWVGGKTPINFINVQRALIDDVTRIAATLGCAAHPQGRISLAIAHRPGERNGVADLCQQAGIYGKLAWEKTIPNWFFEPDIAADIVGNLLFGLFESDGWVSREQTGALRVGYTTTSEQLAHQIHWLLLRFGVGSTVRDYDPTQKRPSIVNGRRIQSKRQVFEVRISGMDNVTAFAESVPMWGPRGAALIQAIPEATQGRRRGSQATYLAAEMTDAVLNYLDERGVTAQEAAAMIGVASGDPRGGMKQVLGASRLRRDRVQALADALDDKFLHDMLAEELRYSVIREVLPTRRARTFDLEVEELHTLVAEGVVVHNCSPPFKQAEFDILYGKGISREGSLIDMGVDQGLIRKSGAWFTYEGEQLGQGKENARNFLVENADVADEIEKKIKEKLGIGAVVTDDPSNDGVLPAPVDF

SMILES | EC50
Cc1ccc(N(Cc2cc(=O)[nH]c3ccccc23)C(=O)CCl)cc1 | > 380 µM (inconclusive)
CCO/C=C1/C(=O)N(C)C(=O)c2cc(OC)ccc21 | > 380 µM (inactive)

molecular target: T3, Corticotropin-releasing factor receptor 2/Corticotropin-releasing factor-binding protein (Homo sapiens, UniProt P24387+Q13324); test: activators of CRF receptor 2 with binding protein – uHTS hits, confirmation (AID 602473); format: functional; conditions: read-out: EC50_Mean
T3 sequence (Q13324 whole entry): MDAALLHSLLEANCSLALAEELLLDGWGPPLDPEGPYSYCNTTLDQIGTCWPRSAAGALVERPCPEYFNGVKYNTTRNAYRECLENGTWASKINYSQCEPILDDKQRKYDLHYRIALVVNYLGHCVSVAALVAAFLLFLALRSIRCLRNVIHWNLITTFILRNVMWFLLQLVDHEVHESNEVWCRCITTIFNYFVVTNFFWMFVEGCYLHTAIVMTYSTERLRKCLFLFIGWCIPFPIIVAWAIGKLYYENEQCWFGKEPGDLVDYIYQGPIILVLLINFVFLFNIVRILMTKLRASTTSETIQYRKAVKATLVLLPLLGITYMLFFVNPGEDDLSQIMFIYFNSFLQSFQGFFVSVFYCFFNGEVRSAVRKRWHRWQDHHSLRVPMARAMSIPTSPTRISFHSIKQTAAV
T3 sequence (P24387 whole entry): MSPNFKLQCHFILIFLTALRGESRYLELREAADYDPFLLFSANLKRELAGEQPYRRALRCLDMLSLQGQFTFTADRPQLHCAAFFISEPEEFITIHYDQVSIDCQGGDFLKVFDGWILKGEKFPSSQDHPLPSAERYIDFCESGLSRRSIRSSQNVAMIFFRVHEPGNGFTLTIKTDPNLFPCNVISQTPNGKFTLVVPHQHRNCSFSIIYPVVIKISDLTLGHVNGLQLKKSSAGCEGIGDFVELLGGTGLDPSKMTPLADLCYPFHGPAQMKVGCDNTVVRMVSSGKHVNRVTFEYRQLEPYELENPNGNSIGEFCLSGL

SMILES | EC50
COc1ccc(C(=O)Cn2cnc3ccccc3c2=O)c(OC)c1 | > 53 µM (inactive)
COc1ccc(CN(C2CCCCC2C)S(=O)(=O)c2ccc(S(=O)(=O)N(C)C)cc2)cc1OC (configuration not stated) | 5.42 µM (active)
COc1ccc(NC(=N)SCc2ccccn2)cc1 | 15.6 µM (active)
Cc1ccc(S(=O)(=O)N2CCN(c3ncnc4scc(-c5ccccc5)c34)CC2)cc1 | 2.65 µM (active)
COc1ccc(CNS(=O)(=O)NCc2ccccc2)cc1OC | > 53 µM (inactive)
O=C(c1ccc(S(=O)(=O)Nc2ccccc2)cc1)N1CCCC(C(F)(F)F)C1 (configuration not stated) | 10.5 µM (active)
CCN=C(S)N(CCc1ccc(S(N)(=O)=O)cc1)C1CC(=O)N(c2ccccc2)C1=O (configuration not stated) | 18.5 µM (active)
CC1(c2ccc(OC(F)F)cc2)NC(=O)N(CC(=O)Nc2ccc3c(c2)OCO3)C1=O (configuration not stated) | 5.24 µM (active)
CCOC(=O)c1ccc(CNC(=O)Cn2nnc(-c3ccccc3)n2)o1 | > 53 µM (inactive)
CCCn1c(=O)c(C(=O)NNC(=O)c2ccccc2Cl)c(O)c2ccccc21 | 5.81 µM (active)
Cc1nn(C)c(C(=O)N/N=C/c2cccc(Oc3ccccc3)c2)c1Br | > 53 µM (inactive)
CC(=O)Nc1ccc(/C=N/N2C(=O)NC(C)(c3ccc(OC(F)F)cc3)C2=O)cc1 (configuration not stated) | 1.37 µM (active)

system: Streptococcus sp. 'group A'; test: growth inhibition of control SK(-) GAS strain, dose response, counter-screen for streptokinase expression inhibitor project, luminescence, kanamycin, BacTiterGlo, confirmation (AID 1900); format: functional, organism-based; conditions: not given

SMILES | EC50
O=C(COc1cccc(Cl)c1)Nc1ccccc1N1CCCCC1 | 21.1 µM (active)
Cc1nc2c(C)cccn2c(=O)c1NC(=O)c1ccc2c(c1)OCO2 | > 150 µM (not active)
Cc1ccsc1C(=O)N(c1nc2ccccc2s1)c1c(C)cccc1C | 16.7 µM (active)
CC(C)(C)c1ccccc1OCCCCCn1ccnc1 | 19.1 µM (active)
FC(F)(F)c1cccc(Nc2nc(N3CCCC3)nc(N3CCCC3)n2)c1 | 4.06 µM (active)
CCOc1ccc2c(c1)c1nnc(SCC(=O)N3CCC(C)CC3)nc1n2C | 24.2 µM (active)
Cc1ccc2c(c1)C(=O)CC1(CCC(C(C)(C)C)CC1)O2 (configuration not stated) | 9.31 µM (active)
O=C(NC(=S)Nc1ccc(Cl)c(C(=O)O)c1)c1cccc(COc2ccccc2)c1 | 13 µM (active)
CCCCCCCCCCC(=O)NNC(=O)c1c(O)c2ccccc2n(CC)c1=O | 0.337 µM (active)
O=C(CSC(=S)N1CCCCC1)Nc1nc(-c2ccccc2)c(-c2ccccc2)o1 | 1.51 µM (active)
CCOC(=O)c1cnc(-n2nc(C)cc2C)nc1N(CC)CC | 25.3 µM (active)
COc1ccc(-c2coc3c(C)c4oc(=O)c(CCC(=O)O)c(C)c4cc23)cc1 | 3.74 µM (active)
CC(=O)Oc1ccc(/C=N/NS(=O)(=O)c2ccccc2)cc1 | > 150 µM (not active)
Cc1cc(Br)c(OCc2ccc(C(=O)N/N=C3\CC4CC=CC34)cc2)c(Br)c1 (configuration not stated) | 4.08 µM (active)
CC(=N)/C(C#N)=C(/O)CSc1nc2cc(Cl)ccc2c(=O)n1Cc1ccco1 | 11.8 µM (active)
C/C(=N\NC(=O)c1ccc(Cl)c(Cl)c1)c1ccc(Br)s1 | 2.12 µM (active)

system: not listed separately; test: inhibitors of intracellular T. cruzi replication, confirmation, NIH3T3 host cells, beta-gal luminescence (AID 2044); format: functional, cell-based; conditions: not given;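 note: intracellular parasites grown in NIH/3T3 mouse fibroblasts as host cells; luminescent beta-galactosidase reporter signal from transgenic T. cruzi replicating inside host cells; inhibitors lower the luminescence signal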

SMILES | EC50
CC(C)(C)c1ccccc1OCCCCCn1ccnc1 | 1.32 µM (active)
CC(=N)/C(C#N)=C(/O)CSc1nc2cc(Cl)ccc2c(=O)n1Cc1ccco1 | 3.43 µM (active)
C/C(=N\NC(=O)c1ccc(Cl)c(Cl)c1)c1ccc(Br)s1 | 0.597 µM (active)
